Measurements taken from patent publication US12324802B2, “Modulators of cystic fibrosis transmembrane conductance regulator” (Vertex Pharmaceuticals Incorporated, priority 2020, dated 2025).

Biological target: T1, CFTR (F508del/MF-HBE cells) (Homo sapiens, UniProt P13569, DEL508-508)
T1 construct: human bronchial epithelial (HBE) cells derived from CF subjects heterozygous for F508del and a minimal function CFTR mutation; endogenous in cells; host or cells: primary human bronchial epithelial cells from CF subjects (F508del/MF genotype)
Test: Ussing chamber assay of CFTR-mediated short-circuit currents (identification of potentiator compounds)
Format: cell-based
Details: CFTR-mediated ISC in F508del/MF-HBE cells; incubated 18-24 hours at 37° C. with 10 μM (14S)-8-[3-(2-{dispiro[2.0.2.1]heptan-7-yl}ethoxy)-1H-pyrazol-1-yl]-...-2,2,4-trione, 20% human serum
Procedure, shortened: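 Short-circuit current was voltage-clamped at 0 mV and 37 °C in pH 7.4 HEPES buffers, with amiloride (30 μM) on the apical side. The CFTR component was defined as forskolin (20 μM) peak minus residual current after BPO/GlyH-101/CFTRinh-172 at 20 μM each. Cells had been pretreated 18–24 h with potentiator concentrations and 10 μM corrector in 20% human serum, kept throughout the measurement.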

T1 sequence (P13569 with tags, fused parts or gaps DEL508-508): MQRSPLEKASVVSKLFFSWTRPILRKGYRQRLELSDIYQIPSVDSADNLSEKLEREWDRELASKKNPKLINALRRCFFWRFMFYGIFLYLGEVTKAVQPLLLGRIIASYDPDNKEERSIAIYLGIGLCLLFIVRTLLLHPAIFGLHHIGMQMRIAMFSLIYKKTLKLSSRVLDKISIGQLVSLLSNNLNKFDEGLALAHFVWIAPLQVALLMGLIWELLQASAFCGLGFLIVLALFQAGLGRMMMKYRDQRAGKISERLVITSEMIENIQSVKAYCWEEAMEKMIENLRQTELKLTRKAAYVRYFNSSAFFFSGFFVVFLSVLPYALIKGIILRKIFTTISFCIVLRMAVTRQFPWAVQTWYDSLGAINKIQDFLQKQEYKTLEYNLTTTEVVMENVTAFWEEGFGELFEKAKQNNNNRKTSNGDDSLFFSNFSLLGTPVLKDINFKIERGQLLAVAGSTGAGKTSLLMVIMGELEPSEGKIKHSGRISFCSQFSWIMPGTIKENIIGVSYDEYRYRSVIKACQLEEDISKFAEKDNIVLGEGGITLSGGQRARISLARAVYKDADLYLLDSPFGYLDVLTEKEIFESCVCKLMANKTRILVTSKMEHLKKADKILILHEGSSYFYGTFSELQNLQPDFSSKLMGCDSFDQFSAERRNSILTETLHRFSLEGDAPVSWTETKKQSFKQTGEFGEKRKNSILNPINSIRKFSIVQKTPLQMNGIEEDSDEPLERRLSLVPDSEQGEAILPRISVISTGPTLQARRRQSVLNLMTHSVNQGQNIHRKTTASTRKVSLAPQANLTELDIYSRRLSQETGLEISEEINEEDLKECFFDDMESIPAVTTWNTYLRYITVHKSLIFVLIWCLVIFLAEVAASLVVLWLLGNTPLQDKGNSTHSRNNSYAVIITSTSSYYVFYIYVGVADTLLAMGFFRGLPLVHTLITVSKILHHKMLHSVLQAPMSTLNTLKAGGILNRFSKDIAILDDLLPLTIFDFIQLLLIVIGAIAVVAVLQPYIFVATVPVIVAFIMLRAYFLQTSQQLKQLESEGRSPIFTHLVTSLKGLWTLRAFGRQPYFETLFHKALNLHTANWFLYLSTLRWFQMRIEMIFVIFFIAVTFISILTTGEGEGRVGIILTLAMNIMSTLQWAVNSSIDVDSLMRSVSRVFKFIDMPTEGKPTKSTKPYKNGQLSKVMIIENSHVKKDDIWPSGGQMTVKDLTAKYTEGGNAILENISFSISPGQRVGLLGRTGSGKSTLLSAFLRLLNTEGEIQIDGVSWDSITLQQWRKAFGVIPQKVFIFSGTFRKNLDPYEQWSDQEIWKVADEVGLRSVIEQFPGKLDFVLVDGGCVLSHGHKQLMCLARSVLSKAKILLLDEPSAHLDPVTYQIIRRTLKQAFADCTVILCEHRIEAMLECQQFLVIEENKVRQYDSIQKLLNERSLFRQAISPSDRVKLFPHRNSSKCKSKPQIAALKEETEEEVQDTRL

| Structure (SMILES) | EC50 |
| --- | --- |
| CN(C)C(=O)C1CCCCCC(O)(C(F)(F)F)C2=NN=C(O2)c2nc(c(C(F)(F)F)cc2N)N1 (single isomer, unassigned) [Compound 148, 17-amino-6-hydroxy-N,N-dimethyl-6,15-bis(trifluoromethyl)-19-oxa-3,4,13,18-tetrazatricyclo[12.3.1.12,5]nonadeca-1(18),2,4,14,16-pentaene-12-carboxamide] | < 500 nM |
| CN(C)C(=O)C1CCCCCC(O)(C(F)(F)F)C2=NN=C(O2)c2nc(c(C(F)(F)F)cc2N)N1 (single isomer, unassigned) [Compound 149, 17-amino-6-hydroxy-N,N-dimethyl-6,15-bis(trifluoromethyl)-19-oxa-3,4,13,18-tetrazatricyclo[12.3.1.12,5]nonadeca-1(18),2,4,14,16-pentaene-12-carboxamide] | > 1000 nM |
| CN(C)C(=O)C1CCCCCC(O)(C(F)(F)F)C2=NN=C(O2)c2nc(c(C(F)(F)F)cc2N)N1 (single isomer, unassigned) [Compound 150, 17-amino-6-hydroxy-N,N-dimethyl-6,15-bis(trifluoromethyl)-19-oxa-3,4,13,18-tetrazatricyclo[12.3.1.12,5]nonadeca-1(18),2,4,14,16-pentaene-12-carboxamide] | > 1000 nM |
| CN(C)C(=O)C1CCCCCC(O)(C(F)(F)F)C2=NN=C(O2)c2nc(c(C(F)(F)F)cc2N)N1 (single isomer, unassigned) [Compound 151, 17-amino-6-hydroxy-N,N-dimethyl-6,15-bis(trifluoromethyl)-19-oxa-3,4,13,18-tetrazatricyclo[12.3.1.12,5]nonadeca-1(18),2,4,14,16-pentaene-12-carboxamide] | > 1000 nM |
| Nc1cc(C(F)(F)F)c2nc1-c1nnc(o1)[C@@](O)(C(F)(F)F)CCCCCC(C(=O)O)N2 (single isomer, unassigned) [Compound 155] | > 1000 nM |
| Nc1cc(C(F)(F)F)c2nc1-c1nnc(o1)[C@@](O)(C(F)(F)F)CCCCCC(C(=O)O)N2 (single isomer, unassigned) [Compound 156] | < 500 nM |
| CC1(C)CCCCC(O)(C(F)(F)F)C2=NN=C(O2)c2nc(c(C(F)(F)F)cc2N)NC1 (single isomer, unassigned) [Compound 171, 17-amino-11,11-dimethyl-6,15-bis(trifluoromethyl)-19-oxa-3,4,13,18-tetrazatricyclo[12.3.1.12,5]nonadeca-1(18),2,4,14,16-pentaen-6-ol] | < 500 nM |
| CC1(C)CCCCC(O)(C(F)(F)F)C2=NN=C(O2)c2nc(c(C(F)(F)F)cc2N)NC1 (single isomer, unassigned) [Compound 172, 17-amino-11,11-dimethyl-6,15-bis(trifluoromethyl)-19-oxa-3,4,13,18-tetrazatricyclo[12.3.1.12,5]nonadeca-1(18),2,4,14,16-pentaen-6-ol] | < 500 nM |
| CC1(CO)CCCCC[C@](O)(C(F)(F)F)C2=NN=C(O2)c2nc(c(C(F)(F)F)cc2N)N1 (single isomer, unassigned) [Compound 174] | < 500 nM |
| CC1(CO)CCCCC[C@](O)(C(F)(F)F)C2=NN=C(O2)c2nc(c(C(F)(F)F)cc2N)N1 (single isomer, unassigned) [Compound 175] | < 500 nM |
| CC(C)C1CCCCC[C@](O)(C(F)(F)F)C2=NN=C(O2)c2nc(c(C(F)(F)F)cc2N)N1 (single isomer, unassigned) [Compound 178] | < 500 nM |
| CC(C)C1CCCCC[C@](O)(C(F)(F)F)C2=NN=C(O2)c2nc(c(C(F)(F)F)cc2N)N1 (single isomer, unassigned) [Compound 179] | < 500 nM |
| Nc1cc(C(F)(F)F)c2nc1-c1nnc(o1)[C@@](O)(C(F)(F)F)CCCCCC(c1ccc(F)cc1)N2 (single isomer, unassigned) [Compound 182] | < 500 nM |
| Nc1cc(C(F)(F)F)c2nc1-c1nnc(o1)[C@@](O)(C(F)(F)F)CCCCCC(c1ncco1)N2 (single isomer, unassigned) [Compound 184] | < 500 nM |
| CC1(C)CCC(O)CC[C@](O)(C(F)(F)F)C2=NN=C(O2)c2nc(c(C(F)(F)F)cc2N)N1 (single isomer, unassigned) [Compound 189] | > 1000 nM |
| CC1(C)CCC(O)CC[C@](O)(C(F)(F)F)C2=NN=C(O2)c2nc(c(C(F)(F)F)cc2N)N1 (single isomer, unassigned) [Compound 190] | < 500 nM |
| Nc1cc(C(F)(F)F)c2nc1-c1nnc(o1)[C@@](O)(C(F)(F)F)CCCCCC(C1CC1)N2 (single isomer, unassigned) [Compound 191] | < 500 nM |
| Nc1cc(C(F)(F)F)c2nc1-c1nnc(o1)[C@@](O)(C(F)(F)F)CCCCCC(C1CC1)N2 (single isomer, unassigned) [Compound 192] | < 500 nM |
| CC1(C)CCCCC(O)C(O)(C(F)(F)F)C2=NN=C(O2)c2nc(c(C(F)(F)F)cc2N)N1 (single isomer, unassigned) [Compound 194, 17-amino-12,12-dimethyl-6,15-bis(trifluoromethyl)-19-oxa-3,4,13,18-tetrazatricyclo[12.3.1.12,5]nonadeca-1(18),2,4,14,16-pentaene-6,7-diol] | < 500 nM |
| CC1(C)CCCCC(O)C(O)(C(F)(F)F)C2=NN=C(O2)c2nc(c(C(F)(F)F)cc2N)N1 (single isomer, unassigned) [Compound 195, 17-amino-12,12-dimethyl-6,15-bis(trifluoromethyl)-19-oxa-3,4,13,18-tetrazatricyclo[12.3.1.12,5]nonadeca-1(18),2,4,14,16-pentaene-6,7-diol] | > 1000 nM |

The remaining lines, values ahead:

| EC50 | Structure (SMILES) |
| --- | --- |
| < 500 nM | Nc1cc(C(F)(F)F)c2nc1-c1nnc(o1)C(O)(C(F)(F)F)CCCCCC(c1ccccc1)N2 (single isomer, unassigned) [Compound 119, 17-amino-12-phenyl-6,15-bis(trifluoromethyl)-19-oxa-3,4,13,18-tetrazatricyclo[12.3.1.12,5]nonadeca-1(18),2,4,14,16-pentaen-6-ol] |
| < 500 nM | Nc1cc(C(F)(F)F)c2nc1-c1nnc(o1)C(O)(C(F)(F)F)CCCCCC(c1ccccc1)N2 (single isomer, unassigned) [Compound 120, 17-amino-12-phenyl-6,15-bis(trifluoromethyl)-19-oxa-3,4,13,18-tetrazatricyclo[12.3.1.12,5]nonadeca-1(18),2,4,14,16-pentaen-6-ol] |
| > 1000 nM | Nc1cc(C(F)(F)F)c2nc1-c1nnc(o1)C(O)(C(F)(F)F)CCCCCC(c1ccccc1)N2 (single isomer, unassigned) [Compound 122, 17-amino-12-phenyl-6,15-bis(trifluoromethyl)-19-oxa-3,4,13,18-tetrazatricyclo[12.3.1.12,5]nonadeca-1(18),2,4,14,16-pentaen-6-ol] |
| > 1000 nM | Nc1cc(C(F)(F)F)c2nc1-c1nnc(o1)C(O)(C(F)(F)F)c1ccc(F)c(c1)CCC[C@@H]1CCCN21 (single isomer, unassigned) [Compound 130] |
| < 500 nM | Nc1cc(C(F)(F)F)c2nc1-c1nnc(o1)C(O)(C(F)(F)F)c1ccc(F)c(c1)CCC[C@@H]1CCCN21 (single isomer, unassigned) [Compound 131] |
| > 1000 nM | Nc1cc(S(=O)(=O)c2ccccc2)c2nc1-c1nnc(o1)C(O)(C(F)(F)F)CCCCC[C@@H]1CCCN21 (single isomer, unassigned) [Compound 140] |
| < 500 nM | Nc1cc(S(=O)(=O)c2ccccc2)c2nc1-c1nnc(o1)C(O)(C(F)(F)F)CCCCC[C@@H]1CCCN21 (single isomer, unassigned) [Compound 141] |
| < 500 nM | Nc1cc(S(=O)(=O)c2ccc(OC(F)(F)F)cc2)c2nc1-c1nnc(o1)C(O)(C(F)(F)F)CCCCC[C@@H]1CCCN21 (single isomer, unassigned) [Compound 152] |
| > 1000 nM | Nc1cc(S(=O)(=O)c2ccc(OC(F)(F)F)cc2)c2nc1-c1nnc(o1)C(O)(C(F)(F)F)CCCCC[C@@H]1CCCN21 (single isomer, unassigned) [Compound 153] |
| < 500 nM | Nc1cc(C(F)(F)F)c2nc1-c1nnc(o1)[C@@](O)(C(F)(F)F)CCCCCC(C(=O)N1CCCC1)N2 (single isomer, unassigned) [Compound 157] |
| > 1000 nM | Nc1cc(C(F)(F)F)c2nc1-c1nnc(o1)[C@@](O)(C(F)(F)F)CCCCCC(C(=O)N1CCCC1)N2 (single isomer, unassigned) [Compound 158] |
| > 1000 nM | COc1cc2nc(c1N)-c1nnc(o1)C(O)(C(F)(F)F)CCCCC[C@@H]1CCCN21 (single isomer, unassigned) [Compound 159] |
| > 1000 nM | COc1cc2nc(c1N)-c1nnc(o1)C(O)(C(F)(F)F)CCCCC[C@@H]1CCCN21 (single isomer, unassigned) [Compound 160] |
| < 500 nM | CS(=O)(=O)c1cc(N)c2nc1N1CCC[C@H]1CCCCCC(O)(C(F)(F)F)C1=NN=C2O1 (single isomer, unassigned) [Compound 161] |
| < 500 nM | Nc1cc(C(F)(F)F)c2nc1-c1nnc(o1)C(O)(C(F)(F)F)CCCOC[C@@H]1CCCN21 (single isomer, unassigned) [Compound 167] |
| > 1000 nM | COC(=O)c1cc(N)c2nc1N1CCC[C@H]1CCCCCC(O)(C(F)(F)F)C1=NN=C2O1 (single isomer, unassigned) [Compound 169] |
| < 500 nM | COC(=O)c1cc(N)c2nc1N1CCC[C@H]1CCCCCC(O)(C(F)(F)F)C1=NN=C2O1 (single isomer, unassigned) [Compound 170] |
| < 500 nM | Nc1cc(C(F)(F)F)c2nc1-c1nnc(o1)[C@@](O)(C(F)(F)F)CCCCCC(Cc1ccccc1)N2 (single isomer, unassigned) [Compound 180] |
